Experimental data taken from patent US20080249131A1, “NON-NUCLEOSIDE REVERSE TRANSCRIPTASE INHIBITORS” (priority 2002, published 2008).
Read-outs that look alike come from different tables or passages of the source.

Columns and labels:
[1] = system: human immunodeficiency virus type 1 (HIV-1); experiment: Inhibitory activity against HIV (EC50), cell-based luciferase reporter assay
Source text: […]. Experimental procedures were essentially as described by Connor et al. in Journal of Virology (1996), 70: 5306-5311 (Characterization of the functional properties of env genes from long-term survivors of human immunodeficiency virus type 1 infection), and Popik et al. in Journal of Virology (2002), 76: 4709-4722 (Human immunodeficiency virus type 1 uses lipid raft-colocalized CD4 and chemokine receptors for productive entry into CD4^+ T cells). It should be particularly appreciated that the virus contains two introduced mutations in the RT gene (K103N and Y181C, created by PCR mutagenesis) that render the virus highly resistant to current non-nucleoside HIV-1 drugs. Virus stocks were generated by cotransfection of plasmid DNA encoding VSV-G with vector pNL4-3Env(−)Luc(+) into 293T cells. Sixty-four hours after transfection, virus-containing medium was collected by centrifugation and stored frozen at −80° C.
HeLa cells were infected with the VSV-G pseudotyped virus in the presence of screening compounds in a 384-well microtiter plate format. Forty-eight hours after initial infection, lysis buffer and Luciferase Assay Reagent (Promega) was added to the cells and luciferase activity was determined by counting the resultant luminescence using a LJL luminometer. Since the luciferase gene is carried in the virus genome, its expression level directly reflects the virus replication level in the presence of a compound.
To evaluate the activity of the compounds against wild type HIV-1, the HeLa-JC53 cell line that expresses high levels of CD4 and CCR5 (see e.g., Platt et al. in Journal of Virology (1998), 72: 2855-2864: Effect of CCR5 and CD4 cell surface concentrations on infection by macrophagetropic isolates of human immunodeficiency virus type 1) was modified by isolation of a stable cell line that expresses luciferase under the control of the HIV-1 promoter (long terminal repeat, i.e., LTR). HIV-1 infection of this cell line stimulates the transcription of luciferase from the HIV-1 promoter and the luciferase gene expression level is proportional to the level of virus replication (Harrington et al. in Journal of Virology Methods (2000), 88: 111-115: Direct detection of infection of HIV-1 in blood using a centrifugation-indicator cell assay; and Roos et al. in Virology (2000), 273: 307-315: LuSIV cells: a reporter cell line for the detection and quantitation of a single cycle of HIV and SIV replication). Procedures for virus infection, compound testing and luciferase activity determination were the same as for the VSV-G pseudotyped HIV-1.

wild-type HIV RT = target: T1, wild-type HIV RT (Human immunodeficiency virus type 1 group M subtype B, UniProt P03366); experiment: IC50 for wild-type HIV RT; type: biochemical
T1 construct: IC50 is indicated in microM for wild-type HIV RT

[2] = Table 1, inhibitory activity against HIV, read-out: EC50

## Cc1nnc(SCC(=O)Nc2ccccc2C(F)(F)F)n1-c1ccccc1Cl [compound 23]
[1]; [2]
  EC50: > 100 µM

## O=C(CSc1nnc(-c2ccncc2)n1-c1ccccc1)Nc1ccccc1I [compound 24]
[1]; [2]
  EC50: > 100 µM

## O=C(CSc1nnc(-c2ccc(Cl)cc2)n1-c1ccccc1)Nc1ccccn1 [compound 25]
[1]; [2]
  EC50: > 100 µM

## Cc1ccccc1NC(=O)CSc1nnc(-c2ccc(Cl)cc2)[nH]1 [compound 26]
[1]; [2]
  EC50: 10 to 100 µM

## Cn1c(SCC(=O)Nc2ccccc2)nnc1-c1ccc(Br)cc1 [compound 27]
[1]; [2]
  EC50: > 100 µM

## Cc1ccc(NC(=O)CSc2nnc(Cc3ccccc3)n2C)c(Br)c1 [compound 29]
[1]; [2]
  EC50: > 100 µM
wild-type HIV RT; Table 1
  IC50: 10 to 100 µM

## Cc1ccc(NC(=O)CSc2nnc(C)n2-c2ccccc2)cc1C [compound 30]
[1]; [2]
  EC50: > 100 µM

## Cc1ccc(NCc2nnc(SCC(=O)Nc3ccc(C)cc3Br)n2-c2ccccc2)cc1 [compound 33]
[1]; Human immunodeficiency virus 1
  EC50: > 100 µM
wild-type HIV RT; Table 1
  IC50: 10 to 100 µM

## O=C(CSc1nnc(C2CCCCC2)n1-c1ccccc1)Nc1ccccc1Br [compound 34]
[1]; Human immunodeficiency virus 1
  EC50: > 100 µM
wild-type HIV RT; Table 1
  IC50: 10 to 100 µM

## Cc1ccc(-n2c(SCC(=O)Nc3ccc(C)cc3Br)nnc2-c2ccncc2)cc1 [compound 36]
[1]; [2]
  EC50: > 100 µM

## Cc1ccc(-c2nnc(SCC(=O)Nc3ccccc3Br)n2C)cc1 [compound 37]
[1]; [2]
  EC50: > 100 µM

## Cc1ccc(-n2c(C)nnc2SCC(=O)Nc2ccc(C)c(Cl)c2)cc1 [compound 39]
[1]; [2]
  EC50: > 100 µM

## Cc1cccc(NC(=O)CSc2nnc(C)n2-c2ccccc2)c1 [compound 40]
[1]; [2]
  EC50: > 100 µM
wild-type HIV RT; Table 1
  IC50: 10 to 100 µM

## CC(=O)c1ccc(NC(=O)CSc2nnc(C)n2-c2ccc(C)cc2)cc1 [compound 41]
[1]; Human immunodeficiency virus 1
  EC50: > 100 µM
wild-type HIV RT; Table 1
  IC50: 10 to 100 µM

## Cc1ccc(NC(=O)CSc2nnc(COc3ccc(C#N)cc3)n2-c2ccccc2)c(Br)c1 [compound 44]
[1]; Human immunodeficiency virus 1
  EC50: > 100 µM
wild-type HIV RT; Table 1
  IC50: 10 to 100 µM

## Cc1ccc(NC(=O)C(C)Sc2nnc(C)n2-c2ccc(C)cc2)cc1 (stereo not drawn) [compound 45]
[1]; [2]
  EC50: > 100 µM
wild-type HIV RT; Table 1, numeric value
  IC50: 36.3 µM

## Cc1ccc(NC(=O)CSc2nnc(-c3ccncc3)n2-c2ccccc2Cl)c(Br)c1 [compound 46]
[1]; Human immunodeficiency virus 1
  EC50: > 100 µM
wild-type HIV RT; Table 1
  IC50: > 100 µM

## Cc1ccc(NC(=O)CSc2nnc(C)n2-c2ccccc2)cc1 [compound 47]
[1]; [2]
  EC50: > 100 µM

## Cc1nnc(SCC(=O)Nc2ccccc2)n1-c1ccccc1 [compound 49]
[1]; [2]
  EC50: > 100 µM

## Cc1cc(C)c(NC(=O)CSc2nnc(C)n2-c2ccccc2)c(C)c1 [compound 51]
[1]; [2]
  EC50: > 100 µM

## Cc1ccc(NC(=O)CSc2nnc(-c3ccccc3C)n2-c2ccccc2)c(Br)c1 [compound 52]
[1]; Human immunodeficiency virus 1
  EC50: > 100 µM
wild-type HIV RT; Table 1
  IC50: 10 to 100 µM
